Data as given in ChEMBL document CHEMBL4418493, “N-hydroxyformamide compounds and compositions comprising them for use as BMP1, TLL1 and/or TLL2 inhibitors” (2018).

How the values were obtained:
[1] = Drug metabolism in heparinized pooled human plasma at pH 7.5 assessed as formation of (3-ethoxy-5-(5-((((R)-2-((R)-1-(N-hydroxyformamido)propyl)heptanamido)methyl)carbamoyl) furan-2-yl)phenyl)phosphonic acid at 100 to 2000 ng/ml incubated up to 4 or 24 hrs by LC-MS/MS analysis; format: ADME, cell-free; conditions: pH 7.5, 24 h
[2] = Drug metabolism in heparinized pooled human plasma at pH 7.5 assessed as conversion to active compound at 100 to 2000 ng/ml incubated for 4 by LC-MS/MS analysis; format: ADME, cell-free
[3] = Stability in pH 7.96 assessed as compound purity level at 1 mg/ml heated to 40 degC and measured at 200 hrs by LC/MS analsysis; format: physicochemical; conditions: buffer, read-out: Stability
Tolloid-like protein 1 = Tolloid-like protein 1 (Homo sapiens, UniProt O43897, I156V/N221S/V284A); experiment: Inhibition of recombinant human TLL1 I156V/N221S/V284A mutant expressed in CHOE1A cells pre-incubated for 10 mins before promyostatin peptide substrate addition and measured after 60 mins by FRET based assay; format: cell-based
Chain of Tolloid-like protein 1 (O43897 148-1013 I156V/N221S/V284A limits assumed): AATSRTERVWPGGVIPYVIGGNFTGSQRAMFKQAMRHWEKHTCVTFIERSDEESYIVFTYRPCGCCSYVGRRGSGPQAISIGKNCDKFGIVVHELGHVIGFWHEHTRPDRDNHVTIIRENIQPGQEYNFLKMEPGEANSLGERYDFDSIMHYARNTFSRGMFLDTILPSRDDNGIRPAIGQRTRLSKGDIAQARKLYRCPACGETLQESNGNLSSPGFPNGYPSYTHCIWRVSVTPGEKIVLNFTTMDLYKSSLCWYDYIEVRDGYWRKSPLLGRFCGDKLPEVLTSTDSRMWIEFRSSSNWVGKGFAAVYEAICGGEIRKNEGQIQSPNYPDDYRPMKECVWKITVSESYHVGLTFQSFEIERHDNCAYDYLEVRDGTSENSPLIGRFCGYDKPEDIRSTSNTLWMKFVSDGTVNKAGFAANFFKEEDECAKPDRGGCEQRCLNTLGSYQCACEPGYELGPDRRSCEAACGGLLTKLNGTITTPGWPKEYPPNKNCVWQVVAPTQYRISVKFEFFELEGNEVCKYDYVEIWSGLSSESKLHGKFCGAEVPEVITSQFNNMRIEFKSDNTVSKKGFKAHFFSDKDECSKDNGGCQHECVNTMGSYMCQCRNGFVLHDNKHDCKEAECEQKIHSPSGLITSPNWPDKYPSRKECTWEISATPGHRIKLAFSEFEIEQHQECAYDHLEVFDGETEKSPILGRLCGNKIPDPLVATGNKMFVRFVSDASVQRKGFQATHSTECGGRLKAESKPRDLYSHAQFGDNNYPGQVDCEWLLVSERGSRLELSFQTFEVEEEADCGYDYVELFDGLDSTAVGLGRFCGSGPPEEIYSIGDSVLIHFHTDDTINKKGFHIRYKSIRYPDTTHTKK

[4] = biological target: T1, Bone morphogenetic protein 1 (Homo sapiens, UniProt P13497); experiment: Inhibition of C-terminal FLAG-6x-His epitope tagged and N-terminal human RAGE signal sequence tagged human BMP1 (121 to 721 amino acids) expressed in CHO-E1a cells pre-incubated for 10 mins before promyostatin peptide substrate addition and measured after 60 mins using 0.5 nM BMP1 by FRET based assay; format: cell-based
T1 sequence (P13497 whole entry): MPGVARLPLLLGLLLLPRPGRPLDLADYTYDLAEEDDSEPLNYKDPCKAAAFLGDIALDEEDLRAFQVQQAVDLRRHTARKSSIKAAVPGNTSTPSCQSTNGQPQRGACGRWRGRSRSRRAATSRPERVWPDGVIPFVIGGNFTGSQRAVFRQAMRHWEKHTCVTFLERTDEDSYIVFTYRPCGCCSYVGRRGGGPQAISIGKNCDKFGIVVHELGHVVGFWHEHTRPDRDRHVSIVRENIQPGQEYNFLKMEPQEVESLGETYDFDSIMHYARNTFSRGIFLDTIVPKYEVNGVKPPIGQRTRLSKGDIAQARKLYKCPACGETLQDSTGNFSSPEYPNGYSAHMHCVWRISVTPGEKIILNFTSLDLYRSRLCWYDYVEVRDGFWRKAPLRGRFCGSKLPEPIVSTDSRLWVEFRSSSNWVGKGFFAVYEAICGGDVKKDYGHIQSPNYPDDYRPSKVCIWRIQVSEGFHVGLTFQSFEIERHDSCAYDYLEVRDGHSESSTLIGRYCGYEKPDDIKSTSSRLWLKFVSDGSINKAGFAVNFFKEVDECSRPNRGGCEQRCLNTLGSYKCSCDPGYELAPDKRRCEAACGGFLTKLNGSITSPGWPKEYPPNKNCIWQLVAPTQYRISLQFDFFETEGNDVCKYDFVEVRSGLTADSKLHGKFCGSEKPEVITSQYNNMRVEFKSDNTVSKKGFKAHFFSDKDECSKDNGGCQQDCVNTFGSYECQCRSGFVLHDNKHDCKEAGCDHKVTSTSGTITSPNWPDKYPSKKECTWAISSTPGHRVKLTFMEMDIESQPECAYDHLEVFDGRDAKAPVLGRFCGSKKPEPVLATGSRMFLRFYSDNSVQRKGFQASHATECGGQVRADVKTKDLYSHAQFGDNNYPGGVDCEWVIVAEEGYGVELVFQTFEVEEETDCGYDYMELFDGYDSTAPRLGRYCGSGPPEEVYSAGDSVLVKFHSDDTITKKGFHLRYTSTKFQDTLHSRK

Tolloid-like protein 2 = biological target: T2, Tolloid-like protein 2 (Homo sapiens, UniProt Q9Y6L7); experiment: Inhibition of C-terminal Avi-6x-His epitope tagged and N-terminal human RAGE signal sequence tagged recombinant human TLL2 (26 to 1015 amino acids) expressed in CHOE1A cells incubated for 60 mins with promyostatin peptide substrate by FRET based assay; format: cell-based
T2 sequence (Q9Y6L7 whole entry): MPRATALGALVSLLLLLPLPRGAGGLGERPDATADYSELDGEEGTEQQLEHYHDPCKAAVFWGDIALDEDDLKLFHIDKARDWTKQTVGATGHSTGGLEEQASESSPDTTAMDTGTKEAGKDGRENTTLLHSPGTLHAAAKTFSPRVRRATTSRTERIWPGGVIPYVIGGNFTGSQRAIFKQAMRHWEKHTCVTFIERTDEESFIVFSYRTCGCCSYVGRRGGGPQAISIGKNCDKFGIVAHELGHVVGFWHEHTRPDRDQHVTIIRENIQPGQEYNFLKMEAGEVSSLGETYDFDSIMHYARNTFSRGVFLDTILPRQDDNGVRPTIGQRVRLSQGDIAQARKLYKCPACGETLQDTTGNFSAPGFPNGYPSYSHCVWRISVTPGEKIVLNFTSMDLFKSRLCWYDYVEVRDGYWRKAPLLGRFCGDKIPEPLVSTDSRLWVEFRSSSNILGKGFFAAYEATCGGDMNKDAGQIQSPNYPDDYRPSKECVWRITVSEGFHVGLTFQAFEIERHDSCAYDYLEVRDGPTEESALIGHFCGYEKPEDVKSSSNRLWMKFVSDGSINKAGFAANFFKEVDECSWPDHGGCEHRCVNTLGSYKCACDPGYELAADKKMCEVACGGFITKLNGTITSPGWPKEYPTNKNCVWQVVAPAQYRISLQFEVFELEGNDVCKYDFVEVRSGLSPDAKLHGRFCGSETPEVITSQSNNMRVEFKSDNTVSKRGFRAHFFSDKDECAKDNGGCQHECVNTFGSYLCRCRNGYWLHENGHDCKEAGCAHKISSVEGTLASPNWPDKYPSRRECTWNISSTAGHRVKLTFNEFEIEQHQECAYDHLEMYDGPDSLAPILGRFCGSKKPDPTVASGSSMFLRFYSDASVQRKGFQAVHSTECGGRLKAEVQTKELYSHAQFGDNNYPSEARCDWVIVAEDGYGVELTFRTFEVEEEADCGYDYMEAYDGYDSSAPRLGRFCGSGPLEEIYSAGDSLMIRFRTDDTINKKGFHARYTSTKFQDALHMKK

[5] = Reduction in PICP levels in human cardiac fibroblasts incubated for 24 to 48 hrs by ELISA; format: functional
[6] = Reduction in mature collagen deposition levels in human cardiac fibroblasts incubated for 24 to 48 hrs by immunostaining based assay; format: functional
[7] = Drug metabolism in heparinized pooled human plasma at pH 7.5 assessed as formation of (S)-2-(2-ethoxy-4-(5-((((R)-2-((R)-1-(N-hydroxyformamido)propyl)heptanamido)methyl) carbamoyl)furan-2-yl)benzamido)succinic acid at 100 to 2000 ng/ml incubated up to 4 or 24 hrs by LC-MS/MS analysis; format: ADME, cell-free; conditions: pH 7.5, 24 h
[8] = Drug metabolism in heparinized pooled human plasma at pH 7.5 assessed as formation of (S)-2-(2-(carboxymethoxy)-4-(5-((((R)-2-((R)-1-(N-hydroxyformamido)propyl)heptanamido)methyl)carbamoyl)furan-2-yl)benzamido)succinic acid at 100 to 2000 ng/ml incubated up to 4 or 24 hrs by LC-MS/MS analysis; format: ADME, cell-free; conditions: pH 7.5, 24 h

Compound | Drug metabolism [1] | Drug metabolism [2] | remaining at 200 h, 1 mg/ml [3] | IC50 (Tolloid-like protein 1) | IC50 [4] | IC50 (Tolloid-like protein 2) | IC50 [5] | IC50 [6] | Drug metabolism [7] | Drug metabolism [8]
CCCCC[C@@H](C(=O)NCNC(=O)c1ccc(-c2cc(OCC)cc(P(=O)(O)O)c2)o1)[C@@H](CC)N(C=O)OC(=O)Cc1ccccc1 | Metabolite_Detected | > 10% | < 80% | – | – | – | – | – | – | –
CCCCC[C@@H](C(=O)NCNC(=O)c1ccc(-c2cc(OCC)cc(P(=O)(OCOC(C)=O)OCOC(C)=O)c2)o1)[C@@H](CC)N(O)C=O | Metabolite_Detected | – | – | 251 to 398 nM | 126 to 316 nM | 398 to 794 nM | 398 to 3980 nM | – | – | –
CCCCC[C@@H](C(=O)NCNC(=O)c1ccc(-c2ccc(C(=O)N[C@@H](CC(=O)OCC)C(=O)OCC)c(OCC)c2)o1)[C@@H](CC)N(O)C=O | – | – | – | 251 to 398 nM | 126 to 316 nM | 398 to 794 nM | 398 to 3980 nM | – | – | –
CCCCC[C@@H](C(=O)NCNC(=O)c1ccc(-c2cc(OCC)cc(P(=O)(Oc3ccccc3)Oc3ccccc3)c2)o1)[C@@H](CC)N(O)C=O | – | – | – | – | 126 to 316 nM | – | < 3980 nM | – | – | –
CCCCC[C@@H](C(=O)NCNC(=O)c1ccc(-c2cc(OCC)cc(P(=O)(O)OCOC(=O)OC(C)C)c2)o1)[C@@H](CC)N(O)C=O | – | – | – | < 251 nM | < 316 nM | < 398 nM | < 398 nM | – | – | –
CCCCC[C@@H](C(=O)NCNC(=O)c1ccc(-c2ccc(C(=O)N[C@@H](CC(=O)O)C(=O)O)c(OCC)c2)o1)[C@@H](CC)N(C=O)OC(=O)C(C)(C)C | – | > 10% | < 80% | – | – | – | < 3980 nM | < 1000 nM | Metabolite_Detected | –
CCCCC[C@@H](C(=O)NCNC(=O)c1ccc(-c2ccc(C(=O)N[C@@H](CC(=O)O)C(=O)O)c(OCC(=O)O)c2)o1)[C@@H](CC)N(C=O)OC(=O)c1cccnc1 | – | > 10% | < 80% | – | – | – | < 3980 nM | – | – | Metabolite_Detected
CCCCC[C@@H](C(=O)NCNC(=O)c1ccc(-c2cc(OCC)cc(P(=O)(O)Oc3ccccc3)c2)o1)[C@@H](CC)N(O)C=O | – | – | – | < 251 nM | < 316 nM | < 398 nM | < 398 nM | – | – | –
CCCCC[C@@H](C(=O)NCNC(=O)c1ccc(-c2ccc(C(=O)N[C@@H](CC(=O)OC(C)(C)C)C(=O)OC(C)(C)C)c(OCC)c2)o1)[C@@H](CC)N(O)C=O | – | – | – | 251 to 398 nM | 126 to 316 nM | 398 to 794 nM | 398 to 3980 nM | < 1000 nM | – | –
CCCCC[C@@H](C(=O)NCNC(=O)c1ccc(-c2ccc(C(=O)N[C@@H](CC(=O)O)C(=O)O)c(OCC(=O)O)c2)o1)[C@@H](CC)N(C=O)OC(=O)c1ccccc1O | – | > 10% | < 80% | – | – | – | – | – | – | Metabolite_Detected
CCCCC[C@@H](C(=O)NCNC(=O)c1ccc(-c2ccc(C(=O)N[C@@H](CC(=O)O)C(=O)OC(C)(C)C)c(OCC)c2)o1)[C@@H](CC)N(O)C=O | – | – | – | 251 to 398 nM | 126 to 316 nM | 398 to 794 nM | 398 to 3980 nM | – | – | –
CCCCC[C@@H](C(=O)NCNC(=O)c1ccc(-c2ccc(C(=O)OCCN(C)C)cc2)o1)[C@@H](CC)N(O)C=O | – | – | – | 251 to 398 nM | 126 to 316 nM | 398 to 794 nM | 398 to 3980 nM | – | – | –
CCCCC[C@@H](C(=O)NCNC(=O)c1ccc(-c2cc(OCC)cc(P(=O)(O)O)c2)o1)[C@@H](CC)N(C=O)OCOC(=O)C(C)(C)C | Metabolite_Detected | > 10% | < 80% | – | – | – | – | – | – | –
CCCCC[C@@H](C(=O)NCNC(=O)c1ccc(-c2ccc(C(=O)N[C@@H](CC(=O)O)C(=O)O)c(OCC(=O)O)c2)o1)[C@@H](CC)N(C=O)OC(=O)OC(C)(C)C | – | > 10% | < 80% | – | – | – | < 3980 nM | – | – | Metabolite_Detected
CCCCC[C@@H](C(=O)NCNC(=O)c1ccc(-c2ccc(C(=O)N[C@@H](CC(=O)O)C(=O)OCOC(=O)c3ccccc3)c(OCC)c2)o1)[C@@H](CC)N(O)C=O | – | – | – | < 251 nM | < 316 nM | < 398 nM | < 398 nM | – | – | –
CCCCC[C@@H](C(=O)NCNC(=O)c1ccc(-c2cc(OCC)cc(P(=O)(O)O)c2)o1)[C@@H](CC)N(C=O)OC(=O)c1ccccc1 | Metabolite_Detected | > 10% | < 80% | – | – | – | – | – | – | –
CCCCC[C@@H](C(=O)NCNC(=O)c1ccc(-c2ccc(C(=O)N[C@@H](CC(=O)O)C(=O)O)c(OCC(=O)O)c2)o1)[C@@H](CC)N(C=O)OC(=O)c1ccccc1OC(C)=O | – | > 10% | < 80% | – | – | – | < 3980 nM | – | – | Metabolite_Detected
CCCCC[C@@H](C(=O)NCNC(=O)c1ccc(-c2ccc(C(=O)N[C@@H](CC(=O)O)C(=O)O)c(OCC(=O)O)c2)o1)[C@@H](CC)N(C=O)OC(=O)c1ccccc1C | – | > 10% | < 80% | – | – | – | – | – | – | Metabolite_Detected
CCCCC[C@@H](C(=O)NCNC(=O)c1ccc(-c2ccc(C(=O)N[C@@H](CC(=O)O)C(=O)OCC)c(OCC)c2)o1)[C@@H](CC)N(O)C=O | – | – | – | 251 to 398 nM | 126 to 316 nM | 398 to 794 nM | 398 to 3980 nM | < 1000 nM | – | –
CCCCC[C@@H](C(=O)NCNC(=O)c1ccc(-c2ccc(C(=O)OCC)cc2)o1)[C@@H](CC)N(O)C=O | – | – | – | 251 to 398 nM | 126 to 316 nM | 398 to 794 nM | 398 to 3980 nM | – | – | –
CCCCC[C@@H](C(=O)NCNC(=O)c1ccc(-c2cc(OCC)cc(P(=O)(O)O)c2)o1)[C@@H](CC)N(C=O)OCc1oc(=O)oc1C | Metabolite_Detected | > 10% | < 80% | – | – | – | < 3980 nM | – | – | –
CCCCC[C@@H](C(=O)NCNC(=O)c1ccc(-c2ccc(C(=O)OCCCC)cc2)o1)[C@@H](CC)N(O)C=O | – | – | – | 251 to 398 nM | 126 to 316 nM | 398 to 794 nM | 398 to 3980 nM | – | – | –
